These results are taken from PubChem BioAssay (NCI).

Among the test systems are EKVX NSCLC; HCT-116 colon; LOX IMVI melanoma; NCI-H23 lung; NCI-H460 lung; NCI-H522 lung; OVCAR-3 ovarian; OVCAR-5 ovarian; OVCAR-8 ovarian; UACC-257 melanoma.
Test in all cases: growth of human tumour cells (NCI), 48 h

Each structure is given as a SMILES string.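 Values below derive from 48-hour exposures of cells grown in 96-well plates, with endpoints linearly interpolated between the two concentrations bracketing the appropriate inhibition level. Abbreviation: GI50, concentration required for 50% inhibition of growth. The concentration for full growth arrest is given as TGI.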

With `COc1ccc(-n2sc(=O)n(Cc3ccc(COC(=O)C(C)c4ccc(CC(C)C)cc4)cc3)c2=O)cc1` (stereo not given), the GI50 is 7.36 µM in the assay on EKVX NSCLC; 0.979 µM in the assay on HCT-116 colon; 0.943 µM in the assay on LOX IMVI melanoma; 5.72 µM in the assay on NCI-H23 lung; 5.41 µM with NCI-H460 lung; 0.994 µM with NCI-H522 lung. Also, the GI50 was 0.821 µM with OVCAR-3 ovarian, 5.58 µM in the assay on OVCAR-5 ovarian, 2.81 µM in the assay with OVCAR-8 ovarian and 2.02 µM in the assay on UACC-257 melanoma. Moreover, the TGI in the assay with EKVX NSCLC came out at 14.3 µM; with HCT-116 colon, 2.08 µM; with LOX IMVI melanoma, 1.9 µM; with NCI-H23 lung it was 14.1 µM; in the assay on NCI-H460 lung, 12.5 µM; in the assay with NCI-H522 lung, 2.25 µM. Moreover, the TGI stood at 1.52 µM in the assay with OVCAR-3 ovarian, 11.8 µM in the assay with OVCAR-5 ovarian, 21.5 µM with OVCAR-8 ovarian and 8.81 µM in the assay with UACC-257 melanoma.
Take `O=C1CCC(=O)C(C(=O)CCC(=O)Nc2cccc(Cl)c2)C1` (stereo not given): the TGI in the assay with EKVX NSCLC, in the assay with HCT-116 colon, in the assay on LOX IMVI melanoma, with NCI-H23 lung, in the assay on NCI-H460 lung and in the assay on NCI-H522 lung was above 100 µM in each case. In addition, the TGI with OVCAR-3 ovarian, in the assay with OVCAR-5 ovarian, with OVCAR-8 ovarian and in the assay on UACC-257 melanoma was above 100 µM each time.
Regarding `CCOC(=O)C(Cc1ccc(OC)cc1)C(=O)OCC`, the GI50 in the assay on EKVX NSCLC was 5.84 µM; in the assay with HCT-116 colon, 4.45 µM; in the assay on LOX IMVI melanoma, 3.56 µM; with NCI-H23 lung it was 3.63 µM; in the assay with NCI-H460 lung, 4.12 µM; with NCI-H522 lung, 2.53 µM. Also, the GI50 is 3.59 µM with OVCAR-3 ovarian, 11.4 µM in the assay with OVCAR-5 ovarian, 5.24 µM in the assay on OVCAR-8 ovarian and 3.31 µM in the assay on UACC-257 melanoma. Moreover, the TGI with EKVX NSCLC worked out at 23.7 µM; in the assay with HCT-116 colon, 15.6 µM; with LOX IMVI melanoma, 13.7 µM; in the assay with NCI-H23 lung, 14.9 µM; in the assay with NCI-H460 lung, 15.1 µM; in the assay with NCI-H522 lung it was 8.73 µM. The TGI came out at 11.6 µM with OVCAR-3 ovarian, 24.2 µM with OVCAR-5 ovarian, 32.5 µM in the assay on OVCAR-8 ovarian and 16.3 µM in the assay with UACC-257 melanoma.
Turning to `Cc1sc(/N=C2/NC(=O)CS2)nc1-c1nc(/N=C2/NC(=O)CS2)sc1C`, the GI50 with EKVX NSCLC was 1.33 µM; in the assay on HCT-116 colon, 15.7 µM; in the assay with LOX IMVI melanoma it was above 50 µM; in the assay with NCI-H23 lung it was above 50 µM; with NCI-H460 lung, 23.4 µM; in the assay on NCI-H522 lung, above 50 µM. Further, the GI50 with OVCAR-3 ovarian, with OVCAR-5 ovarian, with OVCAR-8 ovarian and with UACC-257 melanoma was above 50 µM throughout. The TGI in the assay on EKVX NSCLC, in the assay on HCT-116 colon, with LOX IMVI melanoma, with NCI-H23 lung, in the assay on NCI-H460 lung and in the assay on NCI-H522 lung was above 50 µM throughout. Besides, the TGI in the assay on OVCAR-3 ovarian, in the assay on OVCAR-5 ovarian, in the assay with OVCAR-8 ovarian and with UACC-257 melanoma was above 50 µM throughout.
On to `C=C1C(=O)OC2CC3(C)OC3C3OC3C3=CC(OC3=O)C12` (stereo not given), for which the GI50 was 19 µM in the assay with EKVX NSCLC; 1.67 µM with HCT-116 colon; 4.18 µM in the assay with LOX IMVI melanoma; 13.4 µM in the assay with NCI-H23 lung; 19.9 µM in the assay with NCI-H460 lung; 0.299 µM in the assay with NCI-H522 lung. In addition, the GI50 was 2.03 µM with OVCAR-3 ovarian, 9.05 µM in the assay with OVCAR-5 ovarian, 3.32 µM with OVCAR-8 ovarian and 1.92 µM with UACC-257 melanoma. For the same compound, the TGI with EKVX NSCLC was 41.9 µM; with HCT-116 colon, 3.15 µM; with LOX IMVI melanoma it was 12.1 µM; in the assay on NCI-H23 lung, 32.6 µM; in the assay on NCI-H460 lung it was 41.3 µM; in the assay with NCI-H522 lung, 0.904 µM. The TGI in the assay with OVCAR-3 ovarian stood at 3.61 µM; with OVCAR-5 ovarian it was 25.7 µM; in the assay on OVCAR-8 ovarian, 19.3 µM; in the assay on UACC-257 melanoma, 4.03 µM.
As for `CON`, the GI50 in the assay with EKVX NSCLC, in the assay on HCT-116 colon, with LOX IMVI melanoma, in the assay with NCI-H23 lung, in the assay with NCI-H460 lung and with NCI-H522 lung was above 100 µM each time. Also, the GI50 in the assay with OVCAR-3 ovarian, with OVCAR-5 ovarian, with OVCAR-8 ovarian and in the assay on UACC-257 melanoma was above 100 µM each time. Further, the TGI with EKVX NSCLC, in the assay on HCT-116 colon, in the assay on LOX IMVI melanoma, with NCI-H23 lung, in the assay on NCI-H460 lung and with NCI-H522 lung was above 100 µM in each case. Besides, the TGI with OVCAR-3 ovarian, in the assay with OVCAR-5 ovarian, in the assay with OVCAR-8 ovarian and in the assay on UACC-257 melanoma was above 100 µM throughout.
Regarding `CCc1ccccc1-n1c(N)c(C#N)c(-c2ccc(OC)c(OC)c2)c(C#N)c1=O`, the GI50 in the assay on EKVX NSCLC was 41.1 µM; with HCT-116 colon, 17 µM; in the assay with LOX IMVI melanoma, 23.6 µM; in the assay with NCI-H23 lung, 17 µM; in the assay with NCI-H460 lung it was 19.3 µM; in the assay with NCI-H522 lung, 19 µM. The GI50 in the assay with OVCAR-3 ovarian is 17.3 µM; in the assay on OVCAR-5 ovarian it was 20.5 µM; in the assay with OVCAR-8 ovarian, 18.5 µM; in the assay with UACC-257 melanoma it was 23.9 µM. Moreover, the TGI with EKVX NSCLC is above 100 µM; in the assay on HCT-116 colon, 31.1 µM; with LOX IMVI melanoma, 92.2 µM; with NCI-H23 lung it was 33.3 µM; in the assay with NCI-H460 lung, 38.5 µM; in the assay on NCI-H522 lung it was 44.8 µM. Moreover, the TGI came to 33.1 µM in the assay on OVCAR-3 ovarian, 55.3 µM with OVCAR-5 ovarian, 37.6 µM in the assay on OVCAR-8 ovarian and 72.6 µM in the assay on UACC-257 melanoma.
Turning to `CC[C@H](C)[C@H](NC(=O)C12CC(NC(C)=O)(C1)C2)C(=O)N(C)[C@H](C[C@@H](OC(C)=O)c1nc(C(=O)N[C@@H](Cc2ccccc2)C[C@H](C)C(=O)OC)cs1)C(C)C`, the GI50 with EKVX NSCLC is 1.09 µM; in the assay on HCT-116 colon, 0.101 µM; in the assay with LOX IMVI melanoma, 0.229 µM; in the assay on NCI-H23 lung, 0.65 µM; in the assay with NCI-H460 lung, 0.32 µM; in the assay on NCI-H522 lung, 0.0551 µM. The GI50 in the assay with OVCAR-3 ovarian is 0.0494 µM; in the assay with OVCAR-5 ovarian, above 3.89 µM; in the assay on OVCAR-8 ovarian, 0.519 µM; in the assay on UACC-257 melanoma it was 7 µM. Besides, the TGI was above 16.7 µM in the assay on EKVX NSCLC; above 16.7 µM in the assay with HCT-116 colon; above 16.7 µM with LOX IMVI melanoma; above 16.7 µM in the assay on NCI-H23 lung; above 16.7 µM in the assay on NCI-H460 lung; 0.45 µM in the assay with NCI-H522 lung. Further, the TGI in the assay on OVCAR-3 ovarian was 0.569 µM; in the assay with OVCAR-5 ovarian, above 16.7 µM; in the assay with OVCAR-8 ovarian, above 16.7 µM; in the assay with UACC-257 melanoma, above 16.7 µM.
In the case of `Nc1cccc2nsnc12`, the TGI in the assay with EKVX NSCLC is above 100 µM; in the assay on HCT-116 colon, above 100 µM; with LOX IMVI melanoma it was above 100 µM; in the assay on NCI-H23 lung, above 100 µM; with NCI-H460 lung, above 100 µM; with NCI-H522 lung, above 52.2 µM. For the same compound, the TGI in the assay on OVCAR-3 ovarian, with OVCAR-5 ovarian, in the assay with OVCAR-8 ovarian and in the assay on UACC-257 melanoma was above 100 µM throughout.
Regarding `CCNCCNc1cc(-c2cccc(C(F)(F)F)c2)c(C#N)c2nc3ccccc3n12`, the GI50 in the assay with EKVX NSCLC was 1.75 µM; in the assay with HCT-116 colon, 0.239 µM; with LOX IMVI melanoma, 0.299 µM; in the assay on NCI-H23 lung, 1.75 µM; in the assay on NCI-H460 lung it was 0.457 µM; in the assay with NCI-H522 lung it was 1.86 µM. Moreover, the GI50 was 1.26 µM in the assay on OVCAR-3 ovarian, 1.83 µM with OVCAR-5 ovarian, 1.69 µM with OVCAR-8 ovarian and 1.81 µM in the assay on UACC-257 melanoma. In addition, the TGI with EKVX NSCLC was 3.45 µM; in the assay with HCT-116 colon it was 0.515 µM; in the assay with LOX IMVI melanoma, 1.07 µM; with NCI-H23 lung, 3.53 µM; with NCI-H460 lung, 1.81 µM; in the assay on NCI-H522 lung, 3.46 µM. The TGI was 2.62 µM in the assay on OVCAR-3 ovarian, 3.71 µM with OVCAR-5 ovarian, 3.23 µM in the assay on OVCAR-8 ovarian and 3.26 µM with UACC-257 melanoma.
Consider `CO[C@@]12CC(=O)/C(=C(O)\C=C\c3ccccc3)C(=O)[C@]1(OC)Cc1ccccc1O2`, for which the TGI in the assay with EKVX NSCLC was above 100 µM; with HCT-116 colon it was above 100 µM; with LOX IMVI melanoma, above 100 µM; with NCI-H23 lung, 61.8 µM; in the assay with NCI-H460 lung it was 88.1 µM; in the assay on NCI-H522 lung, 83.8 µM. For the same compound, the TGI in the assay on OVCAR-3 ovarian is 55.9 µM; in the assay with OVCAR-5 ovarian, 82.8 µM; with OVCAR-8 ovarian, 77.3 µM; in the assay with UACC-257 melanoma, above 100 µM.
In the case of `O=C1C2Nc3ccccc3SC2C(=O)N1c1cccc([N+](=O)[O-])c1` (stereo not given), the TGI with EKVX NSCLC, with HCT-116 colon, with LOX IMVI melanoma, in the assay on NCI-H23 lung, in the assay on NCI-H460 lung and in the assay on NCI-H522 lung was above 100 µM in each case. Besides, the TGI in the assay with OVCAR-3 ovarian, in the assay with OVCAR-5 ovarian, with OVCAR-8 ovarian and in the assay on UACC-257 melanoma was above 100 µM in each case.
Consider `OC1C2C=CCC1CCC2` (stereo not given), for which the TGI in the assay on EKVX NSCLC, with HCT-116 colon, in the assay on LOX IMVI melanoma, with NCI-H23 lung, in the assay with NCI-H460 lung and with NCI-H522 lung was above 100 µM throughout. In addition, the TGI with OVCAR-3 ovarian, in the assay with OVCAR-5 ovarian, with OVCAR-8 ovarian and in the assay with UACC-257 melanoma was above 100 µM throughout.
